# Test results as given in paper PMC6332183, “α-Glucosidase Inhibitors from Vauquelinia corymbosa” (Molecules, 2015).
# Read-outs that look alike come from different tables or passages of the source. Marks after values point to notes of the source that are not given here.
# Experiments:
# yeast α-glucosidase [1] = biological target: T1, yeast α-glucosidase (Saccharomyces cerevisiae, UniProt P53341); test: yeast α-glucosidase inhibitory assay (pNPG, spectrophotocolorimetric); format: biochemical
# Description: (§1) Aliquots of 0–10 μL of testing materials (triplicated) were incubated for 10 min with 20 μL of an enzyme solution of yeast α-glucosidase (Sigma-Aldrich, 0.4 units/mL in PBS) or mammalian α-glucosidase (Sigma-Aldrich, 40 mg). The mammalian enzyme was separated from rat intestinal acetone powder, which was hand homogenized using 1 mL of ice-cold PBS. After sonicating during ten min, the content was centrifuged at 6400 rpm for 10 min (Microfuge Qualitron, Inc., Albany, NY, USA). The supernatant was recovered and used for the in vitro assay.
# (§2) After incubation with the enzymes 10 μL of p-nitrophenyl α-D-glucopyranoside (pNPG 5 mM and 10 mM in PSB, respectively) were added and then incubated for 20 min at 37 °C. Then, absorbances were determined in a BIO-RAD microplate reader model 680 at 405 nm.
# [2] = test system: rat small intestinal α-glucosidases; test: rat small intestinal α-glucosidase inhibitory assay (pNPG); format: biochemical
# Description: as §1, §2
# [3] = test system: small intestinal rat α-glucosidase; test: kinetic analysis (Lineweaver-Burk) with small intestinal rat α-glucosidase
# Description: (§3) The mode of inhibition was determined by the Lineweaver-Burk plots. The inhibition constants were calculated using the following equation [36]: (2) v=Vmax×S/Km(1+[I]/Ki)+S(1+[I]/αKi) where v is the initial velocity in absence and presence of inhibitor; S and I are concentration of substrate and inhibitor, respectively; Vmax is the maximum velocity; Km is the Michaellis-Menten constant; Ki is the competitive inhibition constant and αKi is the uncompetitive inhibition constant. The kinetic data was analyzed using a computer program for nonlinear regressions (Graph Pad Prism 5.0, GraphPad Software, Inc., La Jolla, CA, USA).
# yeast α-glucosidase [4] = biological target: T1, yeast α-glucosidase; test: kinetic analysis (Lineweaver-Burk) with yeast α-glucosidase; format: biochemical; conditions: Lineweaver-Burk plot
# Description: as §3
# [5] = test system: rat small intestinal α-glucosidases; parameters: method as in doi:10.1016/j.fshw.2014.11.003; conditions: values taken from reference; ref [22]; cited from earlier work
# [6] = mean ± SD of triplicate experiments, read-out: Rat Small Intestinal IC50
# T1 sequence (P53341 whole entry): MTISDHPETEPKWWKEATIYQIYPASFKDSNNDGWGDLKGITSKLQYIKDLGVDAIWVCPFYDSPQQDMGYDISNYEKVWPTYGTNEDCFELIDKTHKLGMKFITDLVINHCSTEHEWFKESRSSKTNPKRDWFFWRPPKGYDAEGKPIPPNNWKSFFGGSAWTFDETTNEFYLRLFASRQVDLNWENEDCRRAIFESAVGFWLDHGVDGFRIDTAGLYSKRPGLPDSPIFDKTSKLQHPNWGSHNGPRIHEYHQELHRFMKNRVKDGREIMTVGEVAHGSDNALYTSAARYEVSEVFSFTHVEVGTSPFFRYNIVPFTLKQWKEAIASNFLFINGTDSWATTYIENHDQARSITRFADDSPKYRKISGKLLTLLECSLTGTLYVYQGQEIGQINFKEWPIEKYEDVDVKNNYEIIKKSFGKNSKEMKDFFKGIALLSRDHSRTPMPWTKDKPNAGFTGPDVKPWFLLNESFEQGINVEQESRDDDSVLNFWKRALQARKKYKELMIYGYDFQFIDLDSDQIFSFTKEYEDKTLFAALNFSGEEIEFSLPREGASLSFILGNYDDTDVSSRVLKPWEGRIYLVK
Rat Small Intestinal Maximum Inhibition (%) [2],"IC50 [2, 6]",Rat Small Intestinal % Inhibition obtained with 10.0 mM of inhibitor [2],Compound,further results
,,15.2 ^d %,"Oc1cc(O)c2c(c1)O[C@@H](c1ccc(O)c(O)c1)[C@@H](O)C2 [Compound 2, (−)-epi-catechin]",
65.1%,1.98 ± 0.15 mM,,"O=c1c(O[C@@H]2O[C@H](CO)[C@H](O)[C@H](O)[C@H]2O)c(-c2ccc(O)c(O)c2)oc2cc(O)cc(O)c12 [Compound 3, hyperoside]",
71.0%,1.63 ± 0.11 mM,,"O=c1c(O[C@@H]2O[C@H](CO)[C@@H](O)[C@H](O)[C@H]2O)c(-c2ccc(O)c(O)c2)oc2cc(O)cc(O)c12 [Compound 4, isoquercetin]",
75.8%,0.43 ± 0.03 mM,,"O=C(OC[C@H]1O[C@@H](Oc2c(-c3ccc(O)c(O)c3)oc3cc(O)cc(O)c3c2=O)[C@H](O)[C@@H](O)[C@H]1O)c1ccccc1 [Compound 6, quercetin-3-O-(6′′-benzoyl)-β-galactoside]","mode of inhibition, rat α-glucosidase ([3]; Lineweaver-Burk plot): mixed-type inhibitor; Ki ([3]; read-out: inhibition constant Ki, rat enzyme (abstract), mixed-type inhibition): 212 µM; IC50 ([2]; read-out: IC50, mammalian enzyme): 0.437 mM; mode of inhibition, yeast α-glucosidase (yeast α-glucosidase [4]): mixed-type inhibitor"
52.6%,10.7 ± 0.96 mM,,"CC(=O)c1ccc(O[C@@H]2O[C@H](CO)[C@@H](O)[C@H](O)[C@H]2O)cc1 [Compound 7, picein]",
,,39.3 ^d %,"COc1ccc(O[C@@H]2O[C@H](CO)[C@@H](O)[C@H](O)[C@H]2O)cc1 [Compound 8, methylarbutin]",
,,,"O=c1c(O)c(-c2ccc(O)c(O)c2)oc2cc(O)cc(O)c12 [Compound 9, quercetin]",IC50 [5]: 216 µM

Compound,Rat Small Intestinal Maximum Inhibition (%) [2],"IC50 [2, 6]",Rat Small Intestinal % Inhibition obtained with 10.0 mM of inhibitor [2],further results
"C[C@H]1O[C@H](O[C@H]2[C@H](O)[C@@H](O)[C@@H](O[C@H]3[C@H](O)[C@@H](O)C(O)O[C@@H]3CO)O[C@@H]2CO)[C@H](O)[C@@H](O)[C@@H]1N[C@H]1C=C(CO)[C@@H](O)[C@H](O)[C@H]1O (stereo partly shown) [Acarbose, acarbose, reference compound]",80.2%,0.1 ± 0.003 mM,,Yeast Maximum Inhibition (%) (yeast α-glucosidase [1]): 89.7%
"N#C[C@H](O[C@@H]1O[C@H](CO)[C@@H](O)[C@H](O)[C@H]1O)c1ccccc1 [Compound 1, prunasin]",,,44.5 ^d %,
quercitrin [Compound 5],59.7%,3.34 ± 0.38 mM,,Yeast Maximum Inhibition (%) (yeast α-glucosidase [1]): 45.0%
